# ChEMBL document CHEMBL1136114, “Advances Toward new antidepressants beyond SSRIs: 1-aryloxy-3-piperidinylpropan-2-ols with dual 5-HT(1A) receptor antagonism/SSRI activities. Part 2” (Bioorg Med Chem Lett, 2003)
# Columns and labels:
# [1] = target: T1, 5-hydroxytryptamine receptor 1A (Homo sapiens, UniProt P08908); experiment: (§1) Inhibition of 5-HT induced [35S]GTP-gamma-S, binding at human cloned 5-HT 1A receptors.; assay type: functional
# T1 sequence (P08908 whole entry): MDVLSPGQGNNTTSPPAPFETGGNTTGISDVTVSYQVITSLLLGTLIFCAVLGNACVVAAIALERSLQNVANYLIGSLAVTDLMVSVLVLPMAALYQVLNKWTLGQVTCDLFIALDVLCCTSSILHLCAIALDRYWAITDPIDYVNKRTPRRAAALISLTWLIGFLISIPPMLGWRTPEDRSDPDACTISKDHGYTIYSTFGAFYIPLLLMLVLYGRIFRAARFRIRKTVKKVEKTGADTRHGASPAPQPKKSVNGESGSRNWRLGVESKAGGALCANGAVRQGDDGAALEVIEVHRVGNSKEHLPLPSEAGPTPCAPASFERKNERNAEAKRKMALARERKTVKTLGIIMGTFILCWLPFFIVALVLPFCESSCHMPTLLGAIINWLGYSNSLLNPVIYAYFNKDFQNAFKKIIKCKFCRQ
# [2] = target: T2, 5-hydroxytryptamine receptor 1A (Homo sapiens) (UniProt P08908); experiment: as §1; assay type: functional
# T2 sequence (whole entry): T1 sequence (P08908 whole entry)
# [3] = target: Sodium-dependent serotonin transporter (Rattus norvegicus, UniProt P31652); experiment: In vitro affinity at the 5-HT reuptake site using [3H]paroxetine as radioligand in rat frontal cortex membranes; assay type: cell membranes, Membrane
# [4] = target: T2, 5-hydroxytryptamine receptor 1A (Homo sapiens); experiment: Stimulation of binding of [35S]GTP-gamma-S, to G protein mediated by human cloned 5-hydroxytryptamine 1A receptor tested in vitro at 1 uM.; assay type: functional
# [5] = target: T1, 5-hydroxytryptamine receptor 1A; experiment: In vitro binding affinity at 5-hydroxytryptamine 1A receptor by [3H]8-OH-DPAT displacement.
# [6] = target: T2, 5-hydroxytryptamine receptor 1A (Homo sapiens); experiment: In vitro binding affinity towards 5-hydroxytryptamine 1A receptor using [3H]8-OH-DPAT as radioligand; settings: concentration not given here
# Sequence of Sodium-dependent serotonin transporter (P31652 whole entry): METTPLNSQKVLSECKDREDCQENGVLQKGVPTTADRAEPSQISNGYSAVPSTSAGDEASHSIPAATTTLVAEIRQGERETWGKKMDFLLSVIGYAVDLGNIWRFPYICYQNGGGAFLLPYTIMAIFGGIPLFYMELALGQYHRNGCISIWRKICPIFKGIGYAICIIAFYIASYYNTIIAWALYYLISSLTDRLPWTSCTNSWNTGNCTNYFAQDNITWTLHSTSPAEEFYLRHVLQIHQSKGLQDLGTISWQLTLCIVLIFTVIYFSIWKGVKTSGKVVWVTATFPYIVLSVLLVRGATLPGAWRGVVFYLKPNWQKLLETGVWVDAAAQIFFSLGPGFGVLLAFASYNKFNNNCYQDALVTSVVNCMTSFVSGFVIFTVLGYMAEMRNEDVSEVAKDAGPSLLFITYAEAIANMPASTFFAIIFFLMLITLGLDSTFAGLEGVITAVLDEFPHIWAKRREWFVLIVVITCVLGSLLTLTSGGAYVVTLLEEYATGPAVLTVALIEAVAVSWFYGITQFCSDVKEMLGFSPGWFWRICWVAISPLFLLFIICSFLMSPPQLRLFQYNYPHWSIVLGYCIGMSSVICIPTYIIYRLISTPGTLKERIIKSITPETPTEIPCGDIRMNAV
SMILES,Ki [1] [nM],Emin [2] [%],Ki [3] [nM],Stimulation [4] [%],Ki [5] [nM],inhibition [6] [%]
COc1ccc2cc([C@@H]3CCN(C[C@H](O)COc4cccc5[nH]ccc45)[C@@H](C)C3)sc2c1,2.98,6.67,1.1,5.26,14.5,
C[C@@H]1C[C@@H](c2cc3cc(F)ccc3s2)CCN1C[C@H](O)COc1cccc2[nH]ccc12,16.7,10.5,0.99,6.35,11.7,
C[C@H]1C[C@H](c2cc3c(F)cccc3s2)CCN1C[C@H](O)COc1cccc2[nH]ccc12,4.88,7.44,1.16,5.37,,
COc1cccc2sc([C@@H]3CCN(C[C@H](O)COc4cccc5[nH]ccc45)[C@@H](C)C3)cc12,,,,7.77,,
C[C@H]1C[C@H](c2cc3cccc(F)c3s2)CCN1C[C@H](O)COc1cccc2[nH]ccc12,4.23,6.8,3.47,2.66,21.9,
C[C@@H]1C[C@H](c2cc3cc(F)ccc3s2)CCN1C[C@H](O)COc1cccc2[nH]ccc12,1.76,10.8,3.53,7.21,8.77,
Cc1ccc2cc([C@@H]3CCN(C[C@H](O)COc4cccc5[nH]ccc45)[C@@H](C)C3)sc2c1,,,2.24,,,< 50
COc1cccc2sc([C@@H]3C[C@H]4CC[C@@H](C3)N4C[C@H](O)COc3cccc4[nH]ccc34)cc12 (stereo in doubt; exo) [listing 1 of 2 here],18.7,,1.31,,15.7,
C[C@H]1C[C@H](c2cc3ccc(Cl)cc3s2)CCN1C[C@H](O)COc1cccc2[nH]ccc12,11.7,7.99,1.1,8.49,24.8,
C[C@H]1C[C@H](c2cc3ccc(F)cc3s2)CCN1C[C@H](O)COc1cccc2[nH]ccc12,7.45,9,0.31,5.32,5.52,
C[C@H]1C[C@H](c2cc3c(C(F)(F)F)cccc3s2)CCN1C[C@H](O)COc1cccc2[nH]ccc12,,,3.46,,24.2,
COc1cccc2sc([C@@H]3C[C@H]4CC[C@@H](C3)N4C[C@H](O)COc3cccc4[nH]ccc34)cc12 (stereo in doubt; endo) [listing 1 of 2 here],,,0.17,,,
COc1cccc2sc([C@H]3CCN(C[C@H](O)COc4cccc5[nH]ccc45)[C@@H](C)C3)cc12,,1.43,,1.38,,
COc1cccc2sc([C@@H]3CCN(C[C@H](O)COc4cccc5[nH]ccc45)[C@H](C)C3)cc12,,2.01,,1.2,,
C[C@H]1C[C@H](c2cc3cc(Cl)ccc3s2)CCN1C[C@H](O)COc1cccc2[nH]ccc12,5.26,6.81,0.58,3.97,8.34,
Cc1cccc2sc([C@@H]3CCN(C[C@H](O)COc4cccc5[nH]ccc45)[C@@H](C)C3)cc12,8.75,4.96,0.44,8.48,6.85,
Cc1cc(C)c2cc([C@@H]3CCN(C[C@H](O)COc4cccc5[nH]ccc45)[C@@H](C)C3)sc2c1,,,1.93,,94.9,
C[C@H]1C[C@H](c2cc3c(Cl)cccc3s2)CCN1C[C@H](O)COc1cccc2[nH]ccc12,,,0.69,,,< 50
O[C@H](COc1cccc2[nH]ccc12)CN1[C@@H]2CC[C@H]1C[C@H](c1cc3ccccc3s1)C2,70.1,9.4,0.07,9.26,30.5,
COc1cccc2sc([C@H]3CCN(C[C@H](O)COc4cccc5[nH]ccc45)[C@H](C)C3)cc12,,5.97,,4.41,,
COc1cccc2sc([C@@H]3C[C@H]4CC[C@@H](C3)N4C[C@H](O)COc3cccc4[nH]ccc34)cc12 (stereo in doubt; endo) [listing 2 of 2 here],,,,,,> 50
C[C@H]1C[C@H](c2cc3cc(F)ccc3s2)CCN1C[C@H](O)COc1cccc2[nH]ccc12,5.67,7.69,0.39,7.68,6.4,
COc1ccc2sc([C@@H]3CCN(C[C@H](O)COc4cccc5[nH]ccc45)[C@@H](C)C3)cc2c1OC,0.98,4.8,10.8,8.38,1.3,
C[C@H]1C[C@H](c2cc3ccccc3s2)CCN1C[C@H](O)COc1cccc2[nH]ccc12,3.28,7.5,0.51,6.32,3.09,
C[C@H]1C[C@@H](c2cc3cc(F)ccc3s2)CCN1C[C@H](O)COc1cccc2[nH]ccc12,16.5,7.87,4.22,3.24,36.8,
COc1cccc2sc([C@@H]3C[C@H]4CC[C@@H](C3)N4C[C@H](O)COc3cccc4[nH]ccc34)cc12 (stereo in doubt; exo) [listing 2 of 2 here],,4.02,,7.22,,
